Target: Human immunodeficiency virus type 1 protease (Human immunodeficiency virus 1, UniProt Q72874)
Experiment: Compound was evaluated for in vitro inhibition of human immunodeficiency virus type 1 (HIV-1) Protease

| Compound | Ki [nM] |
| --- | --- |
| CCC(c1cccc(NS(=O)(=O)c2ccc(C#N)cn2)c1)C1C(=O)CC(CC)(c2cccc(NS(=O)(=O)c3ccc(C#N)cn3)c2)OC1=O (configuration not stated) [2N-[3-(1-{2-[3-(5-cyano-2-pyridylsulfonamido)phenyl]-2-ethyl-4-hydroxy-6-oxo-3,6-dihydro-2H-5-pyranyl}propyl)phenyl]-5-cyano-2-pyridinesulfonamide] | 0.1 |
| CCCC1(CCc2ccccc2)CC(=O)C(C(CC)c2cccc(NS(=O)(=O)c3ccc(C#N)cn3)c2)C(=O)O1 (configuration not stated) [5-cyano-N-(3-{1-[4-hydroxy-2-oxo-6-(2-phenylethyl)-6-propyl-5,6-dihydro-2H-pyran-3-yl]propyl}phenyl)pyridine-2-sulfonamide] | 0.1 |

From BindingDB's records for doi:10.1016/s0960-894x(98)00197-8 (Pharmacia & Upjohn, 1999)
